# Measurements from paper PMC10681007, “Targeted Degradation of XIAP is Sufficient and Specific to Induce Apoptosis in MYCN-overexpressing High-risk Neuroblastoma” (Cancer Research Communications, 2023).
# Read-outs that look alike come from different tables or passages of the source. Starred links: 1 amine or outer side, 2 acyl side, 3 side chain; linkers in the order of their positions; H or OH if unused. Positions of bridges follow the written chain, without caps; N, C: chain ends. Non-standard residues stand in square brackets, D forms with d. Residues, ends and D or L forms follow the SMILES beside them. Chains are numbered I, II in the order given. Hexamethylenediamine = C(CCCN[*:2])CCN[*:1]; Dip = N[C@H](C(=O)O)C(c1ccccc1)c1ccccc1; Chg = N[C@H](C(=O)O)C1CCCCC1; NMeA = CN[C@@H](C)C(=O)O
# What was measured:
# [1] = tested on: HS5 cells; assay: Apoptosis (cleaved PARP/caspase-3, Caspase-Glo 3/7); assay type: cell-based; settings: 10 µmol/L
# Protocol: The determination of caspase-3/7 levels as an indication for apoptosis activity was performed using a Caspase-Glo 3/7 assay kit from Promega according to manufacturer's instructions. Cells were seeded at 1 × 10^4 cells per well and treated with 10 µmol/L of IAP antagonists for various indicated timings, followed by bioluminescence measurement using luminescent plate reader, Tecan Infinite200 Pro. The activity of apoptosis was also measured by flow cytometry using the Dead Cell Apoptosis Kit with Annexin V FITC and PI (Thermo Fisher Scientific) according to manufacturer's instructions. Cells harvested from lentiviral infection were subjected to Annexin V (2.5 µL) and PI (40 ng/mL, 0.5 µL) staining, followed by flow cytometric analysis using BD LSRFortessa cell analyzer with excitation/emission spectra of 494 nm/518 nm for FITC and 535 nm/617 nm for PI.
# FIGURE 2 Specific loss of XIAP expression, not c-IAP1, is required for mediating apoptosis in high-risk neuroblastoma cells. A, Summary of IAP antagonists’ efficacy in killing neuroblastoma cells. […] C, Graphical representation showing the fold change of caspase-3/7 activity relative to vehicle controls after treatment with 10 µmol/L of either A4, B3, or BV6 at indicated timings (data were expressed as mean ± SD of three independent experiments conducted in duplicates; *, P < 0.05). […]
# [2] = target: T1, XIAP (NanoLuc-XIAP) (Homo sapiens, UniProt P98170); assay: NanoBRET XIAP target engagement assay; assay type: binding; settings: NanoBRET tracer displacement, read-out: apparent intracellular affinity to XIAP (EC50)
# T1 construct: host or cells: BE(2)-C and KELLY human neuroblastoma cells
# T1 sequence (P98170 whole entry): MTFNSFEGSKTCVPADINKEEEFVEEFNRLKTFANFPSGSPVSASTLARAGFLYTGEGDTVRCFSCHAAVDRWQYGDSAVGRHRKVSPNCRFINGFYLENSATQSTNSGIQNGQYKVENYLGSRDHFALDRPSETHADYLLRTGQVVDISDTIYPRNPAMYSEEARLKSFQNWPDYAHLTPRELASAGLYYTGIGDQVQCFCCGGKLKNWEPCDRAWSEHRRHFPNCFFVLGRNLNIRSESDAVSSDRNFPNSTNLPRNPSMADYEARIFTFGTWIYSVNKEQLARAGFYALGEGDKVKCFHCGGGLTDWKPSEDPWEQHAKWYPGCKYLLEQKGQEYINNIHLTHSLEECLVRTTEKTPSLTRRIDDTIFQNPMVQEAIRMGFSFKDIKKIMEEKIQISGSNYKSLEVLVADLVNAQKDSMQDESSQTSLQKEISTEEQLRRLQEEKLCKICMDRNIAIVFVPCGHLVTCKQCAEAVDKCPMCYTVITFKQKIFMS
# Protocol: To better understand the mechanisms by which these compounds target XIAP in high-risk neuroblastoma, binding interactions between the antagonists and XIAP were first determined in BE(2)-C and KELLY cells using a NanoBRET quantitative target engagement assay. […] As the BRET signal was not completely abolished even at saturating A4 concentrations, NMR was conducted to further examine the binding interaction between A4 and XIAP (Supplementary Fig. S2A and S2B).
# FIGURE 3 Binding and degradation of XIAP by A4 is necessary for targeting high-risk neuroblastoma cells. […] BRET signal was measured at 2 hours after treatment using a Tecan Infinite 200 Pro equipped with NanoBRET dual-filters (donor 460 nm and acceptor 618 nm) and determined via the formula (BRET ratio = values at 618 nm/values at 460 nm). […] Cells were treated with increasing dose of A4 or BV6 and luminescence was measured continuously in real time for 2 hours. Luminescence values were normalized to DMSO vehicle control and degradation profiles were generated using GraphPad Prism. Values were expressed as mean ± SD of three independent experiments conducted in duplicates. […] BRET signal was measured every 5 minutes for 6 hours after treatment using a Tecan equipped with NanoBRET dual-filters (donor 460 nm and acceptor 618 nm) and determined via the formula (BRET ratio = values at 618 nm/values at 460 nm). […]
# [3] = target: T2, endogenous XIAP (Homo sapiens, UniProt P98170); assay: Degradation of endogenous luciferase-tagged XIAP (HiBiT/LgBiT), real-time luminescence; assay type: cell-based; settings: for DC50: 8 hours, read-out: DC50, degradation curve at 8h
# T2 construct: knock-in a bioluminescent tag at endogenous loci of XIAP; endogenous in cells; host or cells: BE(2)-C and KELLY cells, CRISPR/Cas9 HiBiT knock-in, stably transfected with LgBiT vector (Promega)
# T2 sequence (P98170 whole entry): as above
# Protocol: B, Degradation profiles of endogenous XIAP in response to A4 or BV6 treatment of neuroblastoma cells, BE(2)-C (top) and KELLY (bottom). Cells were treated with increasing dose of A4 or BV6 and luminescence was measured continuously in real time for 2 hours. Luminescence values were normalized to DMSO vehicle control and degradation profiles were generated using GraphPad Prism. Values were expressed as mean ± SD of three independent experiments conducted in duplicates.
# (A) Degradation profiles of endogenous XIAP in response to A4 treatment of neuroblastoma cells, BE(2)-C and KELLY. (B) Degradation profiles of endogenous XIAP in response to BV6 treatment of neuroblastoma cells, BE(2)-C and KELLY. […] Cells were treated with increasing dose of A4 or BV6 and luminescence was measured continuously in real-time for 2 hours (A4) or 8 hours (BV6), respectively. Luminescence values were normalized to DMSO vehicle control and degradation profiles were generated using GraphPad Prism. Values were expressed as mean ± SD of three independent experiments.
smiles,measurement,setting,value
CN[C@@H](C)C(=O)N[C@H](C(=O)N1CCC[C@H]1C(=O)N[C@H](C(=O)NCCCCCCNC(=O)[C@@H](NC(=O)[C@@H]1CCCN1C(=O)[C@@H](NC(=O)[C@H](C)NC)C1CCCCC1)C(c1ccccc1)c1ccccc1)C(c1ccccc1)c1ccccc1)C1CCCCC1 [BV6] (I: H-[NMeA][Chg]P[Dip] / II: H-[NMeA][Chg]P[Dip]; linker I:C-II:C via Hexamethylenediamine),apoptosis,[1],significant apoptosis
same,EC50,[2]; BE(2)-C cells,0.21 µM
same,EC50,[2]; KELLY cells,0.3 µM
same,degradation of XIAP,"[3]; 2 hours' exposure, BE(2)-C and KELLY",minimal degradation of XIAP
same,DC50,[3]; BE(2)-C,44.5 µM
same,DC50,[3]; KELLY,32 µM
